{"source": "paper PMC7532004", "about": "“Site-specific effects of neurosteroids on GABAA receptor activation and desensitization” (eLife, 2020)", "molecular_target": "T1, α1β3 GABAAR WT (Homo sapiens, UniProt P14867+P28472)", "T1 construct": "inserted between the fourth and fifth residues of the mature peptide; photolabeling full-length heteropentameric GABAARs in native membranes; expressed in transfected cells", "T1 sequence (P14867 28-456)": "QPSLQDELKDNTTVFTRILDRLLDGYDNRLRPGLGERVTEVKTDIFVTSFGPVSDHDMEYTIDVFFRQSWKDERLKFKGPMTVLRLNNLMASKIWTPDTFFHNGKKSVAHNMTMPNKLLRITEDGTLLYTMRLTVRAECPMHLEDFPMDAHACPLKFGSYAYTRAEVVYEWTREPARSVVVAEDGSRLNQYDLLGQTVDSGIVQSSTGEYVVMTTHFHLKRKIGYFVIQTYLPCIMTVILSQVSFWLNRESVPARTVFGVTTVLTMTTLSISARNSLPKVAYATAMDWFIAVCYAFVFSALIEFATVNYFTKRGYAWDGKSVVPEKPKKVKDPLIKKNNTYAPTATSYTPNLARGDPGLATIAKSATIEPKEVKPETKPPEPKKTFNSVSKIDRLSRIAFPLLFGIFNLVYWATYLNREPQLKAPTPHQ", "T1 sequence (P28472 26-473)": "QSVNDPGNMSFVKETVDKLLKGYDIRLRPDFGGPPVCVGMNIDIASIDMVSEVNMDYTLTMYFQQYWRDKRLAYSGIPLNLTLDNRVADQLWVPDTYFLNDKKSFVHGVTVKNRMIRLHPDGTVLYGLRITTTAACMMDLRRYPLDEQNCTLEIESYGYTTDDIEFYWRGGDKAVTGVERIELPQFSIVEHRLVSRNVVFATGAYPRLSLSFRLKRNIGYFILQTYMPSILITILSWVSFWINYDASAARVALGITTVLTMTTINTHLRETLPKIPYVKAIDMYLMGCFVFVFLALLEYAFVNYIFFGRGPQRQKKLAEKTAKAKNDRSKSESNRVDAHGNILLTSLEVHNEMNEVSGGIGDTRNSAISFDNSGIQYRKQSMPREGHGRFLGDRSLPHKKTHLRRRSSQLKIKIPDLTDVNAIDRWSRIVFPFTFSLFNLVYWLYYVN", "test": "[3H]muscimol binding to HEK cell membranes (neurosteroid modulation and isotherms), WT receptor", "details": "WT α1β3", "experimental": "Stably transfected cells were plated into dishes. After reaching 50% confluence, GABAA receptors were expressed by inducing cells with 1 μg/ml of doxycycline with the addition of 5 mM sodium butyrate. Cells were harvested 48 to 72 hr after induction. HEK cells, after induction, were grown to 100% confluence, harvested and washed with 10 mM potassium phosphate, 100 mM potassium chloride (pH 7.5) plus protease inhibitors (Sigma-Aldrich, St. Louis, MO) two times. The cells were collected by centrifugation at 1,000 g at 4°C for 5 min. The cells were homogenized with a glass mortar and a Teflon pestle for ten strokes on ice. The pellet containing the membrane proteins was collected after centrifugation at 20,000 g at 4°C for 45 min and resuspended in a buffer containing 10 mM potassium phosphate, 100 mM potassium chloride (pH 7.5). The protein concentration was determined with micro-BCA protein assay and membranes were stored at −80°C.\n[^3H]muscimol-binding assays were performed using a previously described method ([Chen et al., 2019]). […] Assay tubes were incubated for 1 hr on ice in the dark. […] Membranes were collected on Whatman/GF-C glass filter papers using a Brandel cell harvester (Gaithersburg, MD). To perform [^3H]muscimol binding isotherms, 100 μg/ml aliquots of membrane protein were incubated with 0.3 nM–1 μM [^3H]muscimol for 1 hr on ice in the dark. The specific activity for [^3H]muscimol concentrations from 30 nM to 1 μM was reduced to 2 Ci/mmol by dilution with nonradioactive muscimol. The membranes were collected on Whatman/GF-B glass filter papers using a vacuum manifold. […] For [^3H]muscimol-binding experiments examining competitive interactions between neurosteroids, the combined neurosteroids (0.3 μM 3α5αP or 3 μM KK148 ±30 μM KK150) or the same volume of dimethyl sulfoxide (DMSO) were added to the membranes which were then incubated with 3 nM [^3H]muscimol on ice for 1 hr. Time courses of neurosteroid [^3H]muscimol binding enhancement were examined by adding 10 µM of neurosteroids (3α5αP, 3β5αP) to membranes that had been fully equilibrated with 3 nM [^3H]muscimol for 1 hr on ice; binding was then measured as a function of time at 1, 3, 10, 30, 60 min. The membranes were collected on Whatman/GF-B glass filter papers using a vacuum manifold. Radioactivity bound to the filters was measured by liquid scintillation spectrometry using Bio-Safe II (Research Products International, Mount Prospect, IL).", "data": [{"smiles": "CCOC(=O)c1cncn1[C@H](C)c1ccccc1", "note": "[Etomidate, etomidate]", "values": [{"measurement": "Emax (% of control) of [3H]muscimol binding", "setting": "3 nM [3H]muscimol, 100% means no effect", "value": "331.1 ± 9.9 % of control"}, {"measurement": "Bmax of [3H]muscimol binding isotherm in the presence of the modulator", "setting": "etomidate 100 μM, 3α5αP 30 μM, KK148 30 μM, control 9.8 ± 0.8", "value": "10.1 ± 0.5", "unit": "pmol/mg"}]}]}
